Results reported in patent US20030215352A1, “Method of controlling microbial contamination” (Church & Dwight Co., Inc., priority 2002, published 2003).
Where two headings read alike, the source gives them in different places.

Columns and labels:
Details in all cases: 25° C.
[1] = test system: S. aureus
Description: (§1) Absorbent products, of 2 in.×2 in., weighing about 1 gram each, and being of identical construction except that 0%, 2%, 4%, 6%, 8%, 10% and 12% (per gram of product) of sodium bicarbonate was incorporated therein are used for this example. […] Two ml of sterile water was added to each product. Each product was then inoculated with 0.1 ml of one of a bacterium or fungus selected from S. aureus (6.9×10^5 CFU/ml), E. coli (5.4×10^5 CFU/ml), P. aeruginosa (6.9×10^5 CFU/ml), and C. albicans (5×10^5 CFU/ml). Each inoculated product was incubated at 25° C. and kept moist in a petri dish. Microbial numbers were determined on days 7 and 14 Microbial numbers were determined by removing the product from the petri dish and placed in a bag with 9 ml of neutralizer broth, mixed and plated on Leethan Agar. These plates were then incubated for 48-72 hours at 30° C. and colonies on the plates were counted.

[2] = test system: E. coli
Description: as §1

[3] = test system: C. albicans
Description: as §1

[4] = test system: P. aeruginosa
Description: as §1

[5] = Day 7, 2% sodium bicarbonate in absorbent product
[6] = Day 7, 4% sodium bicarbonate in absorbent product
[7] = Day 7, 6% sodium bicarbonate in absorbent product
[8] = Day 7, 8% sodium bicarbonate in absorbent product
[9] = Day 7, 10% sodium bicarbonate in absorbent product
[10] = Day 7, 12% sodium bicarbonate in absorbent product
[11] = Day 14, 2% sodium bicarbonate in absorbent product
[12] = Day 14, 4% sodium bicarbonate in absorbent product
[13] = Day 14, 6% sodium bicarbonate in absorbent product
[14] = Day 14, 8% sodium bicarbonate in absorbent product
[15] = Day 14, 10% sodium bicarbonate in absorbent product
[16] = Day 14, 12% sodium bicarbonate in absorbent product

O=C([O-])O.[Na+] [Sodium Bicarbonate, sodium bicarbonate]
70 Colony Forming Units/ml: Colony Forming Units/ml C. albicans [3, 8]
450 Colony Forming Units/ml: Colony Forming Units/ml C. albicans [3, 12]
<10 Colony Forming Units/ml: Colony Forming Units/ml S. aureus [1, 5] | Colony Forming Units/ml S. aureus [1, 6] | Colony Forming Units/ml S. aureus [1, 7] | Colony Forming Units/ml S. aureus [1, 8] | Colony Forming Units/ml S. aureus [1, 10] | Colony Forming Units/ml S. aureus [1, 11] | Colony Forming Units/ml S. aureus [1, 12] | Colony Forming Units/ml S. aureus [1, 13] | Colony Forming Units/ml S. aureus [1, 15] | Colony Forming Units/ml S. aureus [1, 16] | Colony Forming Units/ml E. coli [2, 5] | Colony Forming Units/ml E. coli [2, 6] | Colony Forming Units/ml E. coli [2, 7] | Colony Forming Units/ml E. coli [2, 8] | Colony Forming Units/ml E. coli [2, 9] | Colony Forming Units/ml E. coli [2, 10] | Colony Forming Units/ml E. coli [2, 11] | Colony Forming Units/ml E. coli [2, 12] | Colony Forming Units/ml E. coli [2, 13] | Colony Forming Units/ml E. coli [2, 14] | Colony Forming Units/ml E. coli [2, 15] | Colony Forming Units/ml E. coli [2, 16] | Colony Forming Units/ml C. albicans [3, 7] | Colony Forming Units/ml C. albicans [3, 9] | Colony Forming Units/ml C. albicans [3, 13] | Colony Forming Units/ml C. albicans [3, 15] | Colony Forming Units/ml C. albicans [3, 16] | Colony Forming Units/ml P. aeruginosa [4, 5] | Colony Forming Units/ml P. aeruginosa [4, 6] | Colony Forming Units/ml P. aeruginosa [4, 9] | Colony Forming Units/ml P. aeruginosa [4, 10] | Colony Forming Units/ml P. aeruginosa [4, 12] | Colony Forming Units/ml P. aeruginosa [4, 13] | Colony Forming Units/ml P. aeruginosa [4, 14] | Colony Forming Units/ml P. aeruginosa [4, 15] | Colony Forming Units/ml P. aeruginosa [4, 16]
50 Colony Forming Units/ml: Colony Forming Units/ml P. aeruginosa [4, 7]
1,800 Colony Forming Units/ml: Colony Forming Units/ml C. albicans [3, 5]
15 Colony Forming Units/ml: Colony Forming Units/ml C. albicans [3, 11] | Colony Forming Units/ml P. aeruginosa [4, 11]
150 Colony Forming Units/ml: Colony Forming Units/ml P. aeruginosa [4, 8]
3000 Colony Forming Units/ml: Colony Forming Units/ml C. albicans [3, 14]
10 Colony Forming Units/ml: Colony Forming Units/ml S. aureus [1, 14]
30 Colony Forming Units/ml: Colony Forming Units/ml C. albicans [3, 10]
5 Colony Forming Units/ml: Colony Forming Units/ml S. aureus [1, 9] | Colony Forming Units/ml C. albicans [3, 6]
